Test results published in ChEMBL document CHEMBL4043090 (Bioorg Med Chem, 2017).

Columns and labels:
[1] = Cytotoxicity against human MAGI-CCR5 cells assessed as reduction in cell viability after 48 hrs by MTS assay; assay type: cell-based; settings: read-out: TC50
[2] = system: Human immunodeficiency virus 1; assay: Antiviral activity against HIV-1 Bal infected in human MAGI-CCR5 cells assessed as reduction in viral infection after 48 hrs by fluorescence based beta-galactosidase reporter gene assay; assay type: functional, cell-based; settings: for IC50 / IC90: Human immunodeficiency virus 1, Bal, MAGI-CCR5, 48 h
[3] = Therapeutic index, ratio of TC50 for human MAGI-CCR5 cells to IC50 for HIV-1 Bal infected in MAGI-CCR5 cells
PBMC = assay: Antiviral activity against HIV-1 Bal infected in human PBMC by MTS assay; assay type: functional, cell-based
[4] = Therapeutic index, ratio of TC50 for human PBMC to IC50 for HIV-1 Bal infected in human PBMC
[5] = Cytotoxicity against human PBMC assessed as reduction in cell viability by MTS assay; assay type: cell-based; settings: read-out: TC50 (the source's name)

Row | SMILES | CC50 at 48 h [1] [µM] | IC50 [2] [µM] | IC90 [2] [µM] | TI [3] | IC50 (PBMC) [µM] | IC90 (PBMC) [µM] | Activity [2] | TI [4] | CC50 [5] [µM]
1 | CC1=C(c2nc(-c3ccc(C#N)cc3)cs2)C(c2ccncc2F)NC(=O)N1 (stereo unspecified) | > 100 | 63.4 | > 100 | 1.6 | – | – | – | – | –
2 | CC1=C(c2nc(-c3ccc(C#N)cc3)cs2)C(c2cccc(O)c2)NC(=O)N1C (stereo unspecified) | > 100 | 2.4 | 13.8 | 42 | 3.2 | 8.5 | Dose-dependent effect | 31 | > 100
3 | CC1=C(c2nc(-c3ccc(C#N)cc3)cs2)C(c2ccc3ccccc3n2)NC(=O)N1 (stereo unspecified) | > 100 | 1.5 | 12.7 | 67 | 1.3 | 5.5 | Dose-dependent effect | 77 | > 100
4 | CC1=C(c2nc(-c3ccccc3)cs2)C(c2cccc(O)c2)NC(=O)N1 (stereo unspecified) | > 100 | 79 | > 100 | 1.3 | 37 | 81 | Dose-dependent effect | 2 | 76
5 | CC1=C(c2nc(-c3cccc(O)c3)cs2)C(c2cccc(O)c2)NC(=O)N1 (stereo unspecified) | 89 | 68 | 98 | 1.3 | 40 | 85 | Dose-dependent effect | 1.4 | 55
6 | COc1ccc(C2NC(=O)NC(C)=C2c2nc(-c3ccc(C#N)cc3)cs2)cc1O (stereo unspecified) | > 100 | 0.38 | 37.8 | 263 | 0.15 | 0.42 | Dose-dependent effect | 667 | > 100
7 | CC1=C(c2nc(-c3ccc(Br)cc3)cs2)C(c2cccc(O)c2)NC(=O)N1 (stereo unspecified) | 60 | 2.3 | 15 | 26 | 3.6 | 12 | Dose-dependent effect | 16 | 56
8 | CC1=C(c2nc(-c3ccc(C#N)cc3)cs2)C(c2cncc(F)c2)NC(=O)N1 (stereo unspecified) | > 100 | 0.7 | > 100 | 143 | 0.53 | 1.3 | Dose-dependent effect | 189 | > 100
9 | CC1=C(c2nc(-c3ccc(C#N)cc3)cs2)C(c2cc3ccccc3[nH]2)NC(=O)N1 (stereo unspecified) | 50.5 | 2.1 | 10.4 | 24 | 3.5 | 10.8 | Dose-dependent effect | 20 | 69.8
10 | CC1=C(c2nc(-c3ccc(C#N)cc3)cs2)C(c2ccc(OC(F)(F)F)cc2)NC(=O)N1 (stereo unspecified) | > 100 | 1.6 | 7.6 | 63 | 8.6 | 21 | Dose-dependent effect | 12 | > 100
11 | CC1=C(c2nc(-c3ccc(C#N)cc3)cs2)C(c2cccc(OC(F)(F)F)c2)NC(=O)N1 (stereo unspecified) | > 100 | 2.4 | 69.8 | 42 | 41.2 | > 100 | Dose-dependent effect | 2.4 | > 100
12 | CC1=C(c2nc(-c3ccc(F)cc3)cs2)C(c2cccc(O)c2)NC(=O)N1 (stereo unspecified) | 60 | 3.8 | 50 | 16 | 8 | 18 | Dose-dependent effect | 7.3 | 58
13 | CC1=C(c2nc(-c3ccc(C)cc3)cs2)C(c2cccc(O)c2)NC(=O)N1 (stereo unspecified) | 61 | 31 | 80 | 2 | 16 | 48 | Dose-dependent effect | 4.1 | 65
14 | CC1=C(c2nc(-c3ccc(C#N)cc3)cs2)C(c2cccnc2F)NC(=O)N1 (stereo unspecified) | > 100 | 0.44 | 2.6 | 227 | 0.26 | 0.83 | Dose-dependent effect | 385 | > 100
15 | CC1=C(c2nc(-c3ccc(C#N)cc3)cs2)C(c2ccnc(Cl)c2)NC(=O)N1 (stereo unspecified) | > 100 | 3.2 | > 100 | 31 | 4.4 | 44.5 | Dose-dependent effect | 23 | > 100
16 | COc1cccc(C2NC(=O)NC(C)=C2c2nc(-c3ccc(C#N)cc3)cs2)c1 (stereo unspecified) | > 100 | 0.38 | 1.8 | 263 | 0.56 | 1.6 | Dose-dependent effect | 179 | > 100
17 | COc1ccc(-c2csc(C3=C(C)NC(=O)NC3c3cccc(O)c3)n2)cc1 (stereo unspecified) | > 100 | 66 | > 100 | 1.5 | 30 | 78 | Dose-dependent effect | 3 | 91
18 | COc1ncccc1C1NC(=O)NC(C)=C1c1nc(-c2ccc(C#N)cc2)cs1 (stereo unspecified) | > 100 | 3.8 | 66 | 26 | 2.6 | 7.3 | Dose-dependent effect | 39 | > 100
19 | CC1=C(c2nc(-c3ccc(C#N)cc3)cs2)C(c2cccnc2Cl)NC(=O)N1 (stereo unspecified) | > 100 | 2.2 | 85.5 | 46 | 1.5 | 8.8 | Dose-dependent effect | 67 | > 100
20 | CC1=C(c2nc(-c3ccc(C#N)cc3)cs2)C(c2ccc(Cl)nc2Cl)NC(=O)N1 (stereo unspecified) | > 100 | 0.86 | 5.8 | 116 | 1.9 | 5.7 | Dose-dependent effect | 52 | 99.1
21 | CC1=C(c2nc(-c3ccc4ccccc4c3)cs2)C(c2cccc(O)c2)NC(=O)N1 (stereo unspecified) | 55 | 43 | 84 | 1.3 | 13 | 29 | Dose-dependent effect | 3.6 | 47
22 | CC1=C(c2nc(-c3ccc(C#N)cc3)cs2)C(c2ccnc3ccccc23)NC(=O)N1 (stereo unspecified) | > 100 | 3.8 | 98.3 | 26 | 2.9 | 10.5 | Dose-dependent effect | 24 | 68.3
23 | COc1cncc(C2NC(=O)NC(C)=C2c2nc(-c3ccc(C#N)cc3)cs2)c1 (stereo unspecified) | > 100 | 10.4 | > 100 | 9.6 | – | – | – | – | –
24 | CC1=C(c2nc(-c3cccs3)cs2)C(c2cccc(O)c2)NC(=O)N1 (stereo unspecified) | > 100 | 49 | > 100 | 2 | – | – | – | – | –
